Where two headings read alike, the source gives them in different places. Marks after values point to notes of the source that are not given here.
How the values were obtained:
[1] = test system: human umbilical vein endothelial cell; details: cited from earlier work
[2] = test system: human umbilical vein endothelial cell; details: cited from earlier work; remark: listed apart in the source
[3] = cited from earlier work
[4] = test system: human lung (H146) mouse xenograft; details: cited from earlier work
[5] = test system: breast cancer (MDA-MB-231) mouse xenograft; details: cited from earlier work
[6] = test system: patients with advanced solid tumors; test: Tumor response by RECIST version 1.0; type: in vivo, human
Plasma pharmacokinetics = details: human, in vivo
[7] = Urinary excretion of unchanged lenvatinib; type: in vivo, human; details: for fe (fraction of the dose excreted in urine): mean (SD)
[8] = test system: patients with advanced solid tumors; type: in vivo

COc1cc2nccc(Oc3ccc(NC(=O)NC4CC4)c(Cl)c3)c2cc1C(N)=O [lenvatinib]
VEGF-driven human umbilical vein endothelial cell tube formation [1]: inhibits
VEGF-driven human umbilical vein endothelial cell proliferation [2]: inhibits
Effect of co-administration of CYP3A4 inhibitors and inducers on exposure [3]: neither affected
Tumor growth [4]: significantly inhibits
Tumor growth [5]: significantly inhibits
Durable SD ≥23 weeks ([6]; all 29 patients with melanoma): 24.1%
PD ([6]; all 29 patients with melanoma): 17.2%
PR ([6]; all 29 patients with melanoma): 10.3%
PRs/uPRs as best response ([6]; all 29 patients with melanoma): 17.2%
PR or uPR in patients with wild-type BRAF ([6]; expanded melanoma cohort, 3 of 17 patients): 17.6%
Responses (PR/uPR) by disease: lung ([6]; in vivo): 1/1
Responses (PR/uPR) by disease: melanoma ([6]; in vivo): 5/29
Responses (PR/uPR) by disease: ovarian ([6]; in vivo): 1/5
Responses (PR/uPR) by disease: pancreatic ([6]; in vivo): 1/2
Responses (PR/uPR) by disease: renal ([6]; in vivo): 1/1
Responses (PR/uPR) by disease: thyroid ([6]; in vivo): 3/6
PR/uPR as best response ([6]; overall, n=77): 15.6%
Total PR/uPR/SD≥23 weeks ([6]; overall, n=77): 40.3%
Median number of cycles after which confirmed PRs were determined ([6]; overall, range, 4–46 cycles): 18 cycles
Confirmed PR ([6]; schedule 1, 18 patients): no patient
PD ([6]; schedule 1, 18 patients): 44.4%
uPR ([6]; schedule 1, NSCLC): One
Confirmed PR ([6]; schedule 2, 33 patients): 21.2%
Durable SD ([6]; schedule 2, 33 patients): 9 patients
PD ([6]; schedule 2, 33 patients): 18.2%
Accumulation, steady state vs single dose (Plasma pharmacokinetics): 1.5-2.2 fold
Tmax (Plasma pharmacokinetics): 1.5 to 3 h
Cmax (Plasma pharmacokinetics; 3.2 mg): 51.4 (30.5) ng/mL
AUC(0-t) (Plasma pharmacokinetics; 3.2 mg, AUC0-6): 180 ng·h/mL
AUC(0-t) (Plasma pharmacokinetics; 3.2 mg, AUC0-24): 407 ng·h/mL
AUC0-24 (Plasma pharmacokinetics; 5 mg): 649.70 (256.151) ng·hr/mL
AUC(0-t) (Plasma pharmacokinetics; 5 mg, AUC0-6): 245 ng·h/mL
Cmax (Plasma pharmacokinetics; 5 mg, Cmax): 62.6 ng/mL
AUC0-6 (Plasma pharmacokinetics; 8 mg): 678 (262) ng·hr/mL
AUC0-24 (Plasma pharmacokinetics; 8 mg): 1819.57 (735.252) ng·hr/mL
CL/F (Plasma pharmacokinetics; 8 mg): 8.05 L/h
Cmax (Plasma pharmacokinetics; 8 mg): 168 (73.4) ng/mL
Tmax (Plasma pharmacokinetics; 8 mg): 2.5 h
Vd/F (Plasma pharmacokinetics; 8 mg): 86.8 L
AUC(0-t) (Plasma pharmacokinetics; 8 mg, AUC0-6): 613 ng·h/mL
AUC(0-t) (Plasma pharmacokinetics; 8 mg, AUC0-24): 1300 ng·h/mL
Cmax (Plasma pharmacokinetics; 8 mg, Cmax): 177 ng/mL
AUC0-6 (Plasma pharmacokinetics; 10 mg): 815(320) ng·hr/mL
AUC0-24 (Plasma pharmacokinetics; 10 mg): 1984.94 (971.427) ng·hr/mL
Cmax (Plasma pharmacokinetics; 10 mg): 209 (107) ng/mL
Tmax (Plasma pharmacokinetics; 10 mg): 2 h
Vd/F (Plasma pharmacokinetics; 10 mg): 75.4 L
tmax (Plasma pharmacokinetics; 10 mg): 3.00 (0.00−6.00) hr
AUC(0-t) (Plasma pharmacokinetics; 10 mg, AUC0-6): 608 ng·h/mL
AUC(0-t) (Plasma pharmacokinetics; 10 mg, AUC0-24): 1370 ng·h/mL
Cmax (Plasma pharmacokinetics; 10 mg, Cmax): 167 ng/mL
Tmax (Plasma pharmacokinetics; 12 mg): 1.5 h
AUC(0-t) (Plasma pharmacokinetics; 12 mg, AUC0-6): 913 ng·h/mL
AUC(0-t) (Plasma pharmacokinetics; 12 mg, AUC0-24): 1810 ng·h/mL
Cmax (Plasma pharmacokinetics; 12 mg, Cmax): 232 ng/mL
CL/F (Plasma pharmacokinetics; 16 mg): 6.09 L/h
Vd/F (Plasma pharmacokinetics; 16 mg): 68.5 L
AUC(0-t) (Plasma pharmacokinetics; 16 mg, AUC0-6): 1510 ng·h/mL
Cmax (Plasma pharmacokinetics; 16 mg, Cmax): 341 ng/mL
fe (fraction of the dose excreted in urine) ([7]; Melanoma Expansion Cohort, Cycle 1 Day 1, 10 mg, n=25): 0.45 (0.282) %
fe (fraction of the dose excreted in urine) ([7]; Melanoma Expansion Cohort, Cycle 2 Day 1, 10 mg, n=16): 0.95 (0.987) %
fe (fraction of the dose excreted in urine) ([7]; Schedule 2 continuous daily dosing, Cycle 1 Day 1, 3.2 mg, n=3): 0.37 (0.102) %
fe (fraction of the dose excreted in urine) ([7]; Schedule 2 continuous daily dosing, Cycle 1 Day 1, 5 mg, n=7): 1.47 (0.685) %
fe (fraction of the dose excreted in urine) ([7]; Schedule 2 continuous daily dosing, Cycle 1 Day 1, 8 mg, n=10): 0.83^a (0.351) %
fe (fraction of the dose excreted in urine) ([7]; Schedule 2 continuous daily dosing, Cycle 1 Day 1, 12 mg, n=4): 0.68 (0.283) %
fe (fraction of the dose excreted in urine) ([7]; Schedule 2 continuous daily dosing, Cycle 2 Day 1, 8 mg, n=6): 1.26 (1.168) %
fe (fraction of the dose excreted in urine) ([7]; Schedule 2 continuous daily dosing, Cycle 2 Day 1, 16 mg, n=6): 1.35 (0.593) %
Fraction of the dose excreted unchanged in the urine (fe) ([7]; during the 24 hours following the dose, regardless of dose): < 1.5%
Study drug–related TEAE, Hypertension, CTCAE grade 3 ([8]; Entire Study Population (N=77)): 13 (16.9) n (%)
Study drug–related TEAE, Hypertension, CTCAE grade 3+4 ([8]; Entire Study Population (N=77)): 13 (16.9) n (%)
Study drug–related TEAE, Diarrhea, Total ([8]; Melanoma Expansion Cohort 10.0 mg bid (n=26)): 8 (30.8) n (%)
Died during therapy or within 30 days of the last treatment ([8]; expanded melanoma cohort (n=26)): 30.8%
Grade 3 study drug–related toxicity: body weight reduction ([8]; human, in vivo): 8%
Grade 3 study drug–related toxicity: diarrhea ([8]; human, in vivo): 5%
Grade 3 study drug–related toxicity: fatigue ([8]; human, in vivo): 7%
Grade 3 study drug–related toxicity: hypertension ([8]; human, in vivo): 17%
Grade 3 study drug–related toxicity: proteinuria ([8]; human, in vivo): 5%
Grade 4 proteinuria, treatment-related ([8]; human, in vivo): 1 event
Grade 4 reversible posterior leukoencephalopathy syndrome, treatment-related ([8]; human, in vivo): 1 event
Grade 4 thrombocytopenia, treatment-related ([8]; human, in vivo): 1 event
Grade 4 thrombotic thrombocytopenic purpura, treatment-related ([8]; human, in vivo): 1 event
Study drug–related TEAE, Anorexia, CTCAE grade 1 ([8]; human, in vivo): 8 (10.4) n (%)
Study drug–related TEAE, Anorexia, CTCAE grade 2 ([8]; human, in vivo): 11 (14.3) n (%)
Study drug–related TEAE, Anorexia, CTCAE grade 3 ([8]; human, in vivo): 0 n (%)
Study drug–related TEAE, Anorexia, CTCAE grade 3+4 ([8]; human, in vivo): 0 n (%)
Study drug–related TEAE, Anorexia, CTCAE grade 4 ([8]; human, in vivo): 0 n (%)
Study drug–related TEAE, Anorexia, Total ([8]; human, in vivo): 19 (24.7) n (%)
Study drug–related TEAE, Any AE, CTCAE grade 1 ([8]; human, in vivo): 6 (7.8) n (%)
Study drug–related TEAE, Any AE, CTCAE grade 2 ([8]; human, in vivo): 30 (39.0) n (%)
Study drug–related TEAE, Any AE, CTCAE grade 3 ([8]; human, in vivo): 28 (36.4) n (%)
Study drug–related TEAE, Any AE, CTCAE grade 3+4 ([8]; human, in vivo): 32 (41.6) n (%)
Study drug–related TEAE, Any AE, CTCAE grade 4 ([8]; human, in vivo): 4 (5.2) n (%)
Study drug–related TEAE, Any AE, Total ([8]; human, in vivo): 68 (88.3) n (%)
Study drug–related TEAE, Diarrhea, CTCAE grade 1 ([8]; human, in vivo): 7 (9.1) n (%)
Study drug–related TEAE, Diarrhea, CTCAE grade 2 ([8]; human, in vivo): 6 (7.8) n (%)
Study drug–related TEAE, Diarrhea, CTCAE grade 3 ([8]; human, in vivo): 4 (5.2) n (%)
Study drug–related TEAE, Diarrhea, CTCAE grade 3+4 ([8]; human, in vivo): 4 (5.2) n (%)
Study drug–related TEAE, Diarrhea, CTCAE grade 4 ([8]; human, in vivo): 0 n (%)
Study drug–related TEAE, Diarrhea, Total ([8]; human, in vivo): 17 (22.1) n (%)
Study drug–related TEAE, Fatigue, CTCAE grade 1 ([8]; human, in vivo): 10 (13.0) n (%)
Study drug–related TEAE, Fatigue, CTCAE grade 2 ([8]; human, in vivo): 17 (22.1) n (%)
Study drug–related TEAE, Fatigue, CTCAE grade 3 ([8]; human, in vivo): 5 (6.5) n (%)
Study drug–related TEAE, Fatigue, CTCAE grade 3+4 ([8]; human, in vivo): 5 (6.5) n (%)
Study drug–related TEAE, Fatigue, CTCAE grade 4 ([8]; human, in vivo): 0 n (%)
Study drug–related TEAE, Fatigue, Total ([8]; human, in vivo): 32 (41.6) n (%)
Study drug–related TEAE, Hypertension, CTCAE grade 1 ([8]; human, in vivo): 2 (2.6) n (%)
Study drug–related TEAE, Hypertension, CTCAE grade 2 ([8]; human, in vivo): 18 (23.4) n (%)
Study drug–related TEAE, Hypertension, CTCAE grade 4 ([8]; human, in vivo): 0 n (%)
Study drug–related TEAE, Hypertension, Total ([8]; human, in vivo): 33 (42.9) n (%)
Study drug–related TEAE, Nausea, CTCAE grade 1 ([8]; human, in vivo): 9 (11.7) n (%)
Study drug–related TEAE, Nausea, CTCAE grade 2 ([8]; human, in vivo): 8 (10.4) n (%)
Study drug–related TEAE, Nausea, CTCAE grade 3 ([8]; human, in vivo): 2 (2.6) n (%)
Study drug–related TEAE, Nausea, CTCAE grade 3+4 ([8]; human, in vivo): 2 (2.6) n (%)
Study drug–related TEAE, Nausea, CTCAE grade 4 ([8]; human, in vivo): 0 n (%)
Study drug–related TEAE, Nausea, Total ([8]; human, in vivo): 19 (24.7) n (%)
Study drug–related TEAE, Proteinuria, CTCAE grade 1 ([8]; human, in vivo): 7 (9.1) n (%)
Study drug–related TEAE, Proteinuria, CTCAE grade 2 ([8]; human, in vivo): 18 (23.4) n (%)
Study drug–related TEAE, Proteinuria, CTCAE grade 3 ([8]; human, in vivo): 4 (5.2) n (%)
Study drug–related TEAE, Proteinuria, CTCAE grade 3+4 ([8]; human, in vivo): 5 (6.5) n (%)
Study drug–related TEAE, Proteinuria, CTCAE grade 4 ([8]; human, in vivo): 1 (1.3) n (%)
Study drug–related TEAE, Proteinuria, Total ([8]; human, in vivo): 30 (39.0) n (%)
Study drug–related TEAE, Weight decreased, CTCAE grade 1 ([8]; human, in vivo): 6 (7.8) n (%)
Study drug–related TEAE, Weight decreased, CTCAE grade 2 ([8]; human, in vivo): 7 (9.1) n (%)
Study drug–related TEAE, Weight decreased, CTCAE grade 3 ([8]; human, in vivo): 6 (7.8) n (%)
Study drug–related TEAE, Weight decreased, CTCAE grade 3+4 ([8]; human, in vivo): 6 (7.8) n (%)
Study drug–related TEAE, Weight decreased, CTCAE grade 4 ([8]; human, in vivo): 0 n (%)
Study drug–related TEAE, Weight decreased, Total ([8]; human, in vivo): 19 (24.7) n (%)
Study drug–related toxicity: diarrhea ([8]; human, in vivo): 22%
Study drug–related toxicity: fatigue ([8]; human, in vivo): 42%
Study drug–related toxicity: hypertension ([8]; human, in vivo): 43%
Study drug–related toxicity: nausea ([8]; human, in vivo): 25%
Study drug–related toxicity: proteinuria ([8]; human, in vivo): 39%
Dose-limiting toxicities ([8]; in vivo): no DLTs
Died during therapy or within 30 days of the last treatment ([8]; overall population n=77): 16.9%
Maximum tolerated dose (MTD) ([8]; po bid, continuous dosing, 28-day cycles): 10 mg
